Test results as given in patent publication US8143263B2, “Therapeutic agents” (Astrazeneca AB, priority 2008, dated 2012).
pEC50: −log10 of the molar value.

These compounds were tested against T1, recombinant human pancreatic GLK (Homo sapiens, UniProt P35557) (assay: biochemical).
T1 sequence (P35557 1-465): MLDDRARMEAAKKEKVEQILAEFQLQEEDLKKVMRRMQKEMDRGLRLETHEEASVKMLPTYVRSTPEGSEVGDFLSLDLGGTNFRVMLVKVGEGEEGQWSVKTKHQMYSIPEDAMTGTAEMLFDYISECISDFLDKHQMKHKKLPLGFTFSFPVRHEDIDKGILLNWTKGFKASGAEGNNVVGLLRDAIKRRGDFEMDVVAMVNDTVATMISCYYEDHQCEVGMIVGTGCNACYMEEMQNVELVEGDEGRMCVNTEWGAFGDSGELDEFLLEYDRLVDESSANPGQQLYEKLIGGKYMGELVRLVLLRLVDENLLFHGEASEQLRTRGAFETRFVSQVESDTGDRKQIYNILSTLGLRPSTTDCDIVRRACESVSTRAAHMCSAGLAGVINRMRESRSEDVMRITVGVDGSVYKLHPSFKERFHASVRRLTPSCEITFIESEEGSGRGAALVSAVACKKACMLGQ

`COCC[C@H](Oc1ncnc2c1cnn2-c1cccc(C)c1)C(=O)Nc1ccc(C)cn1` [Example 33, (S)-4-methoxy-2-{[1-(3-methylphenyl)-1H-pyrazolo[3,4-d]pyrimidin-4-yl]oxy}-N-(5-methylpyridin-2-yl)butanamide] and `COCC[C@H](Oc1ncnc2c1cnn2-c1cccc(OC)c1)C(=O)Nc1ccc(C)cn1` [Example 15, (S)-4-methoxy-2-{[1-(3-methoxyphenyl)-1H-pyrazolo[3,4-d]pyrimidin-4-yl]oxy}-N-(5-methylpyridin-2-yl)butanamide] cannot be ordered by pEC50: less than 5.77 for the first, 5.57 for the second.

Going from `COC[C@H](Oc1ncnc2c1cnn2-c1ccccc1Cl)C(=O)Nc1ccc(C)cn1` [Example 3, (S)-2-{[1-(2-chlorophenyl)-1H-pyrazolo[3,4-d]pyrimidin-4-yl]oxy}-3-methoxy-N-(5-methylpyridin-2-yl)propanamide] to `COCC(Oc1ncnc2c1cnn2-c1ccc(Cl)cc1Cl)C(=O)Nc1ccc(C)cn1` (stereo not shown) [Example 7, 2-{[1-(2,4-Dichlorophenyl)-1H-pyrazolo[3,4-d]pyrimidin-4-yl]oxy}-3-methoxy-N-(5-methylpyridin-2-yl)propanamide], the pEC50 falls from 6.77 to 5.43 (1.34 log units). The first is the more potent here.

`CCOC[C@H](Oc1ncnc2c1cnn2-c1ncccc1Cl)C(=O)Nc1ccccn1` [Example 127e, (2S)-2-[1-(3-chloro-2-pyridyl)pyrazolo[4,5-e]pyrimidin-4-yl]oxy-3-ethoxy-N-(2-pyridyl)propanamide] and `C[C@H](CO)OC[C@H](Oc1ncnc2c1cnn2-c1ccccc1Cl)C(=O)Nc1ccccn1` [Example 200, (2S)-2-(1-(2-chlorophenyl)-1H-pyrazolo[3,4-d]pyrimidin-4-yloxy)-3-((R)-1-hydroxypropan-2-yloxy)-N-(pyridin-2-yl)propanamide] are within 0.2 log units of each other in pEC50: 6.26 for the first, 6.36 for the second.

Going from `COC[C@H](Oc1ncnc2c1cnn2-c1ccccc1Cl)C(=O)Nc1nc(C)ns1` [Example 101, (2S)-2-(1-(2-Chlorophenyl)-1H-pyrazolo[3,4-d]pyrimidin-4-yloxy)-3-methoxy-N-(3-methyl-1,2,4-thiadiazol-5-yl)propanamide] to `CC(C)OCC(Oc1ncnc2c1cnn2-c1ccccc1Cl)C(=O)Nc1ccncn1` (stereo not shown) [Example 120, 2-[1-(2-chlorophenyl)pyrazolo[4,5-e]pyrimidin-4-yl]oxy-3-isopropoxy-N-pyrimidin-4-yl-propanamide], the pEC50 rises from 5.30 to 6.27 (0.97 log units). The second is the more potent here.

Going from `COCCOCCC(Sc1ncnc2c1cnn2-c1ccccc1Cl)C(=O)Nc1nc(C)cs1` (stereo not shown) [Example 52, 2-{[1-(2-chlorophenyl)-1H-pyrazolo[3,4-d]pyrimidin-4-yl]thio}-4-(2-methoxyethoxy)-N-(4-methyl-1,3-thiazol-2-yl)butanamide] to `O=C(Nc1ccc(F)cn1)[C@H](COCCO)Oc1ncnc2c1cnn2-c1c(F)cccc1Cl` [Example 244, (2S)-2-[1-(2-chloro-6-fluoro-phenyl)pyrazolo[3,4-d]pyrimidin-4-yl]oxy-N-(5-fluoro-2-pyridyl)-3-(2-hydroxyethoxy)propanamide], the pEC50 rises from 5.54 to 6.48 (0.94 log units). The second is the more potent here.

Compared with `Cc1ccc(NC(=O)[C@@H](Oc2ncnc3c2cnn3-c2ncccc2Cl)C(C)C)nc1` [Example 86, (2S)-2-(1-(3-chloropyridin-2-yl)-1H-pyrazolo[3,4-d]pyrimidin-4-yloxy)-3-methyl-N-(5-methylpyridin-2-yl)butanamide], `COCCC(Oc1ncnc2c1cnn2C(C)C)C(=O)Nc1ccc(C)cn1` (stereo not shown) [Example 76, 2-[(1-isopropyl-1H-pyrazolo[3,4-d]pyrimidin-4-yl)oxy]-4-methoxy-N-(5-methylpyridin-2-yl)butanamide] is lower in pEC50: 5.82 for the first, no more than 4.00 for the second. The first is the more potent here.

In the case of `C[C@H](CO)OC[C@H](Oc1ncnc2c1cnn2-c1c(Cl)cccc1C#N)C(=O)Nc1ccc(Cl)cn1` [Example 216, (2S)-2-[1-(2-chloro-6-cyano-phenyl)pyrazolo[4,5-e]pyrimidin-4-yl]oxy-N-(5-chloro-2-pyridyl)-3-[(1R)-2-hydroxy-1-methyl-ethoxy]propanamide], the pEC50 was 6.79.
